Experimental data published in patent publication US20050112573A1, “Method of detecting toxic substance” (priority 2001, published 2005).

Test system: yeast genes (level of expressed mRNA)
Assay: DNA chip analysis of expressed mRNA of yeast genes after 2 h culture with a toxic chemical substance
Type: cell-based, Saccharomyces cerevisiae S288C
Description: Yeast (Saccharomyces cerevtisiae S288C (α SUC2mal mel gap2 CUP1)) were cultured at 25° C. on YPD medium (yeast extract 1%, polypepton 2%, glucose 2%). One of toxic chemical substances was added to the cell at logarithmic growth phase, and the cell was further cultured for two hours. Cell was cultured without any chemical substance in the same condition, and was used as control. Concentrations of the chemical substances were defined to inhibit the growth of the yeast but not lead to death.
After the completion of cultivation, the culture was centrifuged to collect the cells. To the cells, sodium acetate buffer (50 mM sodium acetate, 10 mM EDTA, 1% SDS) was added, and the mixture was shaken at 65° C. for five minutes, followed by returning to room temperature, and obtaining the supernatant, which procedure was repeated two times. To the supernatant, ½ amount of a solution of phenol/chloroform was added, and the mixture was centrifuged to give a supernatant, which was added with an equal amount of chloroform, and the mixture was centrifuged to give a supernatant. To the supernatant, an equal amount of isopropanol containing 0.3 M sodium acetate was added, and the mixture was allowed to stand at room temperature for 30 minutes, after which the mixture was centrifuged to give a sediment of the whole RNAs. Seventy % ethanol was added to the sediment, and the mixture was again centrifuged to give a sediment, which was then dried and dissolved in water. mRNA was isolated from the whole RNAs as followings. In view of the fact that a poly A chain is attached to the 3′ terminus of mRNA, a polynucleotide having a poly T structure which was immobilized on the surface of latex beads was used to trap the mRNA, and then the mRNA was washed and eluted with spine column (Oligotex-dT30<Super>mRNA Purification Kit, Takara). Reverse transcription of the mRNA was conducted with a reverse transcriptase (Super Script II Reverse Transcriptase; catalogue No. 18064-014, GibcoBRL) using fluorescence-labeled nucleotides to give cDNAs that were introduced with Cy3-dUTP or Cy5-dUTP during the reverse transcription.
The labeled cDNAs were dissolved in TE buffer (10 mM Tris-HCl/1 mM EDTA, pH8.0), and the solution was dropped on the DNA chip containing the whole genes of yeast (DNA Chip Research Inc. Japan) so that the cDNAs were hybridized on the DNA chip at 65° C. for over 12 hours. The fluoresces intensity of the DNA chip was read with a scanner, and the ratio relative to the fluorescence intensity resulting from the absence of chemical substance was estimated as the following, which is shown in Tables 1 to 9: [formula]
In the Tables, “Intensity” indicated in the rightmost column is a value of the level of expressed mRNA of each gene in control cells as divided by the average level of the expressions of the whole genes.

manganese ethylenebis(dithiocarbamate) [(8)]
1.8: The level of expressed mRNA in the presence of chemical substance/The level of expressed mRNA in the absence of chemical substance (yeast gene YJL116C)
0.6: The level of expressed mRNA in the presence of chemical substance/The level of expressed mRNA in the absence of chemical substance (yeast gene YIL123W)
0.9: The level of expressed mRNA in the presence of chemical substance/ (yeast gene YFL024C, ratio to control without chemical substance, 2 h culture) | The level of expressed mRNA in the presence of chemical substance/ (yeast gene YGR130C, ratio to control without chemical substance, 2 h culture) | The level of expressed mRNA in the presence of chemical substance/The level of expressed mRNA in the absence of chemical substance (yeast gene YHR004C) | The level of expressed mRNA in the presence of chemical substance/ (yeast gene YIL041W, ratio to control without chemical substance, 2 h culture) | The level of expressed mRNA in the presence of chemical substance/ (yeast gene YJL082W, ratio to control without chemical substance, 2 h culture) | The level of expressed mRNA in the presence of chemical substance/ (yeast gene YJL171C, ratio to control without chemical substance, 2 h culture) | The level of expressed mRNA in the presence of chemical substance/The level of expressed mRNA in the absence of chemical substance (yeast gene YKL013C)
1.4: The level of expressed mRNA in the presence of chemical substance/ (yeast gene YHR138C, ratio to control without chemical substance, 2 h culture) | The level of expressed mRNA in the presence of chemical substance/ (yeast gene YJL161W, ratio to control without chemical substance, 2 h culture)
1.2: The level of expressed mRNA in the presence of chemical substance/ (yeast gene YGL037C, ratio to control without chemical substance, 2 h culture) | The level of expressed mRNA in the presence of chemical substance/ (yeast gene YGL053W, ratio to control without chemical substance, 2 h culture) | The level of expressed mRNA in the presence of chemical substance/The level of expressed mRNA in the absence of chemical substance (yeast gene YKL008C)
1.1: The level of expressed mRNA in the presence of chemical substance/ (yeast gene YGL047W, ratio to control without chemical substance, 2 h culture) | The level of expressed mRNA in the presence of chemical substance/ (yeast gene YGR221C, ratio to control without chemical substance, 2 h culture) | The level of expressed mRNA in the presence of chemical substance/ (yeast gene YIL087C, ratio to control without chemical substance, 2 h culture) | The level of expressed mRNA in the presence of chemical substance/in the absence of chemical substance (yeast gene YJL070C) | The level of expressed mRNA in the presence of chemical substance/The level of expressed mRNA in the absence of chemical substance (yeast gene YJL089W) | The level of expressed mRNA in the presence of chemical substance/ (yeast gene YJR008W, ratio to control without chemical substance, 2 h culture) | The level of expressed mRNA in the presence of chemical substance/The level of expressed mRNA in the absence of chemical substance (yeast gene YJR086W)
1.3: The level of expressed mRNA in the presence of chemical substance/in the absence of chemical substance (yeast gene YGL035C) | The level of expressed mRNA in the presence of chemical substance/The level of expressed mRNA in the absence of chemical substance (yeast gene YGL158W) | The level of expressed mRNA in the presence of chemical substance/The level of expressed mRNA in the absence of chemical substance (yeast gene YGR136W) | The level of expressed mRNA in the presence of chemical substance/in the absence of chemical substance (yeast gene YGR287C) | The level of expressed mRNA in the presence of chemical substance/The level of expressed mRNA in the absence of chemical substance (yeast gene YHR139C) | The level of expressed mRNA in the presence of chemical substance/The level of expressed mRNA in the absence of chemical substance (yeast gene YHR142W)
0.4: The level of expressed mRNA in the presence of chemical substance/ (yeast gene YFL032W, ratio to control without chemical substance, 2 h culture) | The level of expressed mRNA in the presence of chemical substance/The level of expressed mRNA in the absence of chemical substance (yeast gene YJR004C)
24.7: The level of expressed mRNA in the presence of chemical substance/ (yeast gene YKL071W, ratio to control without chemical substance, 2 h culture)
1.6: The level of expressed mRNA in the presence of chemical substance/ (yeast gene YJR054W, ratio to control without chemical) | The level of expressed mRNA in the presence of chemical substance/The level of expressed mRNA in the absence of chemical substance (yeast gene YKL041W)
0.7: The level of expressed mRNA in the presence of chemical substance/ (yeast gene YGL199C, ratio to control without chemical substance, 2 h culture) | The level of expressed mRNA in the presence of chemical substance/The level of expressed mRNA in the absence of chemical substance (yeast gene YGL229C) | The level of expressed mRNA in the presence of chemical substance/ (yeast gene YIL023C, ratio to control without chemical) | The level of expressed mRNA in the presence of chemical substance/The level of expressed mRNA in the absence of chemical substance (yeast gene YIL140W) | The level of expressed mRNA in the presence of chemical substance/ (yeast gene YJL152W, ratio to control without chemical substance, 2 h culture)
1.5: The level of expressed mRNA in the presence of chemical substance/The level of expressed mRNA in the absence of chemical substance (yeast gene YFL028C) | The level of expressed mRNA in the presence of chemical substance/ (yeast gene YGR110W, ratio to control without chemical substance, 2 h culture) | The level of expressed mRNA in the presence of chemical substance/ (yeast gene YJL057C, ratio to control without chemical substance, 2 h culture) | The level of expressed mRNA in the presence of chemical substance/in the absence of chemical substance (yeast gene YJL167W)
3.0: The level of expressed mRNA in the presence of chemical substance/ (yeast gene YGL121C, ratio to control without chemical substance, 2 h culture)
1.7: The level of expressed mRNA in the presence of chemical substance/ (yeast gene YGR154C, ratio to control without chemical substance, 2 h culture) | The level of expressed mRNA in the presence of chemical substance/The level of expressed mRNA in the absence of chemical substance (yeast gene YHR071W)
0.8: The level of expressed mRNA in the presence of chemical substance/ (yeast gene YGR101W, ratio to control without chemical substance, 2 h culture) | The level of expressed mRNA in the presence of chemical substance/ (yeast gene YJL066C, ratio to control without chemical substance, 2 h culture) | The level of expressed mRNA in the presence of chemical substance/ (yeast gene YJL151C, ratio to control without chemical substance, 2 h culture) | The level of expressed mRNA in the presence of chemical substance/The level of expressed mRNA in the absence of chemical substance (yeast gene YKL039W)
1.0: The level of expressed mRNA in the presence of chemical substance/ (yeast gene YFL010C, ratio to control without chemical substance, 2 h culture) | The level of expressed mRNA in the presence of chemical substance/The level of expressed mRNA in the absence of chemical substance (yeast gene YFL043C) | The level of expressed mRNA in the presence of chemical substance/The level of expressed mRNA in the absence of chemical substance (yeast gene YGR189C) | The level of expressed mRNA in the presence of chemical substance/The level of expressed mRNA in the absence of chemical substance (yeast gene YGR257C) | The level of expressed mRNA in the presence of chemical substance/ (yeast gene YHR199C, ratio to control without chemical substance, 2 h culture) | The level of expressed mRNA in the presence of chemical substance/The level of expressed mRNA in the absence of chemical substance (yeast gene YJL073W)
1.9: The level of expressed mRNA in the presence of chemical substance/in the absence of chemical substance (yeast gene YJL216C)
2.0: The level of expressed mRNA in the presence of chemical substance/The level of expressed mRNA in the absence of chemical substance (yeast gene YGR213C)
